Test results reported in patent US20090149540A1, “Compositions and Methods for Attenuating Mitochondria-Mediated Cell Injury” (priority 2005, published 2009).

Tests used:
[1] = system: entire mitochondrial protein extract; experiment: Biotin-switch analysis of mitochondrial protein S-nitrosation; format: biochemical, rat; conditions: for S-nitrosation of mitochondrial protein, comparison of NO* donors: entire mitochondrial protein extract
Method: (§1) Rat heart mitochondria were isolated using differential centrifugation (Tompkins, et al. (2005) Biochim. Biophys. Acta PMID: 16278076). Protein was determined by the Folin-phenol method (Lowry, et al. (1951) J. Bio. Chem. 193:265-75) against a standard curve constructed using bovine serum albumin. Mitochondrial incubations and all subsequent steps were performed in the dark. One mg of mitochondrial protein was suspended in 1 mL of mitochondrial respiration buffer (Tompkins, et al. (2005) supra) containing respiratory substrates glutamate (5 mM), malate (2.5 mM) and succinate (5 mM). […] Samples were centrifuged (5 minutes, 14,000×g), and supernatants removed. The pellets were then resuspended in 1 mL of respiration buffer, and centrifuged again. Pellets were frozen in liquid N2 for subsequent analysis. For ONOO^− treatments, 4 μL of 25 mM ONOO^− stock (100 μM final concentration) was added the cap of the reaction tube, the cap quickly closed and the tube shaken immediately. The process was then repeated twice at 30 second intervals, for a total of 3 additions. Mitochondria were then pelleted, washed, and frozen as for S-nitrosoglutathione samples. Complex I activity was assayed as the rotenone-sensitive oxidation of NADH, at 340 nm in the presence of coenzyme Q1 (Borutaite, et al. (2000) supra). Complex IV was assayed by monitoring the cyanide-sensitive first-order oxidation of reduced cytochrome c, at 550 nm according to established methods (Cleeter, et al. (1994) supra).
For biotin-switch analysis, intact mitochondrial pellets (1 mg protein solubilized in extraction buffer) or chromatography column fractions were analyzed in accordance with known methods (Jaffrey & Snyder (2001) supra). Samples were separated in duplicate on non-reducing SDS-PAGE gels; half the gel was stained with COOMASSIE® blue, and the other half blotted and probed with streptavidin-HRP and ECL™ detection (GE biosciences) Blots and stained gels were aligned, and S-nitrosated proteins excised, trypsinized, and identified by peptide mass fingerprinting. Mass spectra (MALDI-TOF) were analyzed using the MASCOT™ algorithm available on the world-wide web at matrixscience.com.

[2] = system: isolated mitochondria; experiment: Chemiluminescent NO analysis of total S-nitrosothiol in isolated mitochondria; format: biochemical, rat
Method: At concentrations above 250 μM, secondary reactions such as free S-nitrosothiol or NO2^− formation were observed.
as §1
Chemiluminescent analysis of S-nitrosothiol content was performed on samples originating from blue-native gels, intact mitochondria and SUPEROSE™ 6 chromatography fractions, according to known methodologies (Yang, et al. (2003) Free Radic. Res. 37:1-10). […] Each sample was run in duplicate and quantified using a standard curve created with known concentrations of NaNO2.

[3] = target: T1, mitochondrial complex I (Rattus norvegicus, UniProt Q66HF1); experiment: Complex I activity (rotenone-sensitive NADH/Co-Q1 oxidation/reduction) in treated mitochondria; format: biochemical; conditions: S-nitrosoglutathione treatment of mitochondria; exposure to light
T1 construct: Rat heart mitochondria were isolated using differential centrifugation; from tissue; host or cells: rat heart mitochondria (male Sprague-Dawley rats)
T1 sequence (Q66HF1 24-727, one chain of several): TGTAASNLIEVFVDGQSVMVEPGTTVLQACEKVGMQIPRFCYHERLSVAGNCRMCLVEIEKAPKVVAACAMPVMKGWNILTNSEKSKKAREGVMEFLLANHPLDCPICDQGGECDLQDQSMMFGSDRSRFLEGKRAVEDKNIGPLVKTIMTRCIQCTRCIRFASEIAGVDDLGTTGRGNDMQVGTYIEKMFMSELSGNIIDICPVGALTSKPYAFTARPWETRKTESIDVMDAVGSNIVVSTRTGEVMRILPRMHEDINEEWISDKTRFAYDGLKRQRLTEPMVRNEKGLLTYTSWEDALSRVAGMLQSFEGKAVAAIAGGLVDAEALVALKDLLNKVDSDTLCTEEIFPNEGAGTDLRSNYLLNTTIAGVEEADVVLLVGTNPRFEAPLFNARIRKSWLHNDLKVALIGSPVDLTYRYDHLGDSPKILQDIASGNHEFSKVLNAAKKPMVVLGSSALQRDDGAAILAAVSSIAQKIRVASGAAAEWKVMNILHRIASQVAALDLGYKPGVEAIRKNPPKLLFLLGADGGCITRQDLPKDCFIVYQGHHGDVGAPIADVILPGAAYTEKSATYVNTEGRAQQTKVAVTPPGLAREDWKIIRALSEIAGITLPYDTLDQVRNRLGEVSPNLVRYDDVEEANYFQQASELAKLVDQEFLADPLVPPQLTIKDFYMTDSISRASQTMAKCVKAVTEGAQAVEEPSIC
Source text: Assuming heart mitochondria contain ˜50 pmol complex I per mg protein (Schagger & Pfeiffer (2001) J. Biol. Chem. 276:37861-37867), it was observed that S-nitrosation plateaud at a ˜7:1 mol/mol ratio (i.e., 7 mols S-nitrosothiol per mol complex I), while maximum complex I inhibition was ˜20-25%. This apparent mis-match between the stoichiometry of S-nitrosation (7:1) and the degree of inhibition (25%) may reflect S-nitrosation of complex I on multiple subunits. Alternatively, since the spectrophotometric complex I activity assay was performed at 340 nm, close to the absorption maxima of S-nitrosothiols (335 nm), S-nitrosothiols within complex I may have been destroyed during the assay, leading to underestimation of inhibition by S-nitrosation.
Rat heart mitochondria were isolated using differential centrifugation (Tompkins, et al. (2005) Biochim. Biophys. Acta PMID: 16278076). Protein was determined by the Folin-phenol method (Lowry, et al. (1951) J. Bio. Chem. 193:265-75) against a standard curve constructed using bovine serum albumin. Mitochondrial incubations and all subsequent steps were performed in the dark. One mg of mitochondrial protein was suspended in 1 mL of mitochondrial respiration buffer (Tompkins, et al. (2005) supra) containing respiratory substrates glutamate (5 mM), malate (2.5 mM) and succinate (5 mM). […]

[4] = system: isolated adult rat cardiomyocytes; experiment: Cardiomyocyte model of ischemia-reperfusion injury, cell viability by Trypan blue exclusion; format: cell-based; conditions: 10 μM or 20 μM; 1 hour ischemia, 30 minutes reoxygenation
Method: Isolated adult rat cardiomyocytes were subjected to 1 hour ischemia (anoxic, glucose free medium, pH 6.5) followed by 30 minutes reoxygenation (labeled “HR”). Cell viability was assayed by Trypan blue exclusion. […] All data are means±SEM, N>3.
Adult rat cardiomyocytes were prepared by collagenase perfusion according to standard methods (Dai, et al. (2001) supra), yielding ˜4×10^6 cells per heart, >80% rod-shaped and viable. Incubations were in a shaking water bath at 37° C., each utilizing 5×10^5 cells in 5 mL of the KH buffers described below. For the control, cells were incubated for 2 hours in oxygenated KH buffer (95/5 O2/CO2). For ischemia-reperfusion treatment, cells were subjected to 30 minutes in oxygenated KH buffer, 1 hour in “ischemic” KH buffer (95/5 N2/CO2, pH 6.5, no glucose), and 30 minutes in oxygenated KH buffer. For the ischemia-reperfusion injury and test compound group of cells, ischemia-reperfusion injury was carried out as described above with test compound present during the 30 minute equilibration prior to ischemia-reperfusion and absent during ischemia. […] At the end of each protocol, cell viability was assayed (Trypan blue), and mitochondrial function determined (measurement of ΔΨm with the fluorescent probe TMRE, respiration with an O2 electrode, and S-nitrosothiol content by chemiluminescence and biotin-switch.

[5] = radioactive tracer studies in whole animals; cited from earlier work

SMILES: NCCN(CCN)/[N+]([O-])=N/O [DETA-NONOate]
- S-nitrosation of mitochondrial protein, comparison of NO* donors [1]: S-nitrosoglutathione resulted in far more S-nitrosation than DETA-NONOate

SMILES: N[C@@H](CCC(=O)N[C@@H](CSN=O)C(=O)NCC(=O)O)C(=O)O [S-nitrosoglutathione]
- concentration at which formation of protein bound S-nitrosothiol saturates ([1]; biotin-switch and chemiluminescent data together): ~250 µM
- concentration at which plateau of mitochondrial protein S-nitrosation is reached ([1]; dose response over the range 50-250 μM): ~200 µM
- S-nitrosation of mitochondrial protein, comparison of NO* donors [1]: far more S-nitrosation than DETA-NONOate or ONOO^−
- concentration at which total S-nitrosothiol (free plus protein-bound) approaches saturation ([2]; 10 μM to 1 mM): ~300 µM
- total S-nitrosothiol ([2]; 100 μM treatment): ~1700 pmol/mg mitochondrial protein
- concentrations at which secondary reactions such as free S-nitrosothiol or NO2− formation were observed ([2]; isolated mitochondria): above 250 μM
- complex I inhibition and its reversibility [3]: complex I inhibition that was reversible by exposure of mitochondria to light

SMILES: CC(SN=O)C(=O)NCC(=O)O (stereo not drawn) [S-nitroso-2-mercaptopropylglycine]
- protection of cardiomyocyte viability from ischemia-reperfusion injury [4]: significant protection of cardiomyocytes from ischemia-reperfusion injury
- S-nitrosation of mitochondrial proteins compared with S-nitrosoglutathione ([1]; same concentrations, 10-100 μM): much greater degree of S-nitrosation of mitochondrial proteins than did S-nitrosoglutathione

SMILES: CC(S)C(=O)NCC(=O)O (stereo not drawn) [2-Mercaptopropionylglycine]
- cell entry and mitochondrial accumulation [5]: readily enters cells and accumulates in mitochondria

SMILES: O=NOO [ONOO^−, peroxynitrite]
- S-nitrosation of mitochondrial protein, comparison of NO* donors [1]: S-nitrosoglutathione resulted in far more S-nitrosation than DETA-NONOate or ONOO^−
